# According to patent US9315816B2, “Method for rapidly developing gene switches and gene circuits” (National University Corporation Chiba University, priority 2010, dated 2016):
# Legend:
# [1] = system: TK-deficient E. coli strain JW1226 in which hsvTK was expressed (hsvTK+); experiment: OFF selection: dP concentration vs viable cell count, hsvTK+; assay type: cell-based, Escherichia coli; details: dP 0 to 100 nM, 12 hours
# Protocol: With the TK-deficient E. coli strain JW1226, human herpes virus derived thymidine kinase (hsvTK) was expressed by transfecting pTrc-hsvtk (FIG. 3), and a relationship between the concentration of dP and the survival rate of cells (viable cell count) was investigated.
# First, JW1226 cells transfected with pTrc-hsvtk were cultured in 2 mL of LB medium containing 100 μg/mL of ampicillin at 37° C. overnight. Next, the culture was diluted with 1 mL of fresh LB medium containing dP (at a final concentration of 0 to 100 nM) 1,000-fold (10^6 cells/mL), and stirred and shaken at 37° C. for 12 hours. After the culture, the cells were seeded on an LB-agar (1.5% w/v) plate containing ampicillin at 100 μg/mL. After incubation at 37° C. for 12 hours, the number of colonies grown was counted as a viable cell count.
# [2] = system: TK-deficient E. coli strain transfected with a control plasmid pTrc99A (hsvTK−); experiment: OFF selection: dP concentration vs viable cell count, hsvTK− control; assay type: cell-based, Escherichia coli; details: dP 0 to 100 nM, 12 hours
# [3] = system: TK-deficient cells transfected with pTrc-hsvtk constantly expressing hsvTK; experiment: Rapidity of OFF selection (dP shock); assay type: cell-based, Escherichia coli; details: dP 1 μM; 5, 30 or 60 minutes
# Protocol: First, TK-deficient cells transfected with pTrc-hsvtk (FIG. 3) so as to constantly express hsvTK were cultured under shaking at 37° C. and 200 rpm until an OD of 0.05 (approximately 3×10^7 cells/mL) was achieved. The resultant was dispensed at 1 mL each, dP was added (final concentration: 1 μM), and culture was continued at 37° C. After a lapse of 5, 30, or 60 minutes, 20 μL of the culture (approximately 10^6 cells) were collected and inoculated in an LB plate containing ampicillin, and the number of colonies grown was counted as a viable cell count.
# E. coli cell population = details: 37 μM dP; cited from earlier work
# [4] = system: TK-deficient E. coli strain in which hsvTK was not expressed (hsvTK−); experiment: ON selection: 5FdU concentration vs viable cell count, hsvTK−; assay type: cell-based, Escherichia coli; details: 5FdU 0 to 25 μg/mL, 12 hours
# [5] = system: TK-deficient E. coli strain in which hsvTK was expressed (hsvTK+); experiment: ON selection: 5FdU concentration vs viable cell count, hsvTK+; assay type: cell-based, Escherichia coli
# Protocol: With the TK-deficient strain of E. coli JW1226, a human herpes virus derived thymidine kinase (hsvTK) was expressed by transfecting pTrc-hsvtk (FIG. 3), and a relationship between the concentration of 5FdU and the survival rate of cells (viable cell count) was investigated.
# First, JW1226 cells transfected with pTrc-hsvtk were diluted with 1 mL of positive selection medium so as to achieve an OD600 of 0.002 (approximately 10^6 cells/mL), and cultured at 37° C. for 12 hours while being rotated at 200 rpm. The positive selection medium used was medium containing tryptone at 2% w/v, NaCl at 0.5% w/v, dT at 10 μg/mL, adenosine at 1 μg/mL, and 5FdU at 0 to 25 μg/mL. After the culture, a portion of the resultant culture was collected and inoculated in an LB plate containing ampicillin, and the number of colonies grown was counted as a viable cell count.
# [6] = system: alkylating agent-sensitive E. coli strain MV2157; experiment: ON-selector function of AAG gene: survival rate under MMS; assay type: cell-based, Escherichia coli
# Protocol: The ON-selector function of the AAG gene was studied. First, alkylating agent-sensitive E. coli strains MV2157 were separately transfected with plasmids containing AAG and variants thereof, specifically, pTrc-aag (WT), pTrc-aag (E125A), and pTrc-aag-ape1 prepared in Example 1, and were compared for their survival rates in the presence/absence of MMS. The E. coli strain transfected with pTrc-aag (E125A) was used as a negative control.
# Next, 1 μL of culture was inoculated in LB liquid medium, and cultured at 37° C. for 3 hours. MMS was added at a final concentration of 0 to 40 mM, and culture was conducted at 37° C. for 15 to 60 minutes. […] A value obtained by dividing the viable cell count of the sample to which MMS had been added by the viable cell count of the sample to which MMS had not been added was defined as a survival rate.
# [7] = system: E. coli MV2157 transfected with selector plasmid Ver. 2 and Circuit-C or Circuit-D; experiment: ON selection of genetic circuit with selector plasmid Ver. 2 under MMS; assay type: cell-based, Escherichia coli
# Protocol: First, E. coli MV2157 transfected with selector plasmid Ver. 2 and Circuit-C (referred to as “ON strain” in Example 3), and E. coli MV2157 transfected with selector plasmid Ver. 2 and […] (referred to as “OFF strain” in Example 3) were prepared. […] The cell density at the time of the MMS treatment is approximately 10^8 cells/mL. […] A value obtained by dividing the viable cell count of the sample to which MMS had been added by the viable cell count of the sample to which MMS had not been added was defined as a survival rate.
# Next, time-dependent changes in the survival rates of the ON strain and the OFF strain when MMS was added at 0.2% were investigated. In this case, an ON strain transfected with pTrc-ape1 was prepared and similarly studied for comparison. Culture and treatment with MMS of each strain of E. coli were conducted by similar methods to the methods in the foregoing.
# [8] = system: E. coli MV2157 switch strains with selector plasmid Ver. 2; experiment: Enrichment efficiency by dual selection, Circuit-B:C:D = 1:100:100; assay type: cell-based, Escherichia coli; details: 0.4% MMS, 30 minutes, approximately 10^6 cells/mL
# Protocol: Next, enrichment efficiency by dual selection was evaluated. Selector plasmid Ver. 2 (FIG. 13-B) was used as a selector plasmid, and the following three kinds of model genetic circuits were used: Circuit-B; Circuit-C; and Circuit-D (see FIGS. 2-B, 2-C, and 2-D). The selector plasmid and one kind of model genetic circuit were transfected into E. coli MV2157. Each switch strain was inoculated in 2 mL of LB medium containing AHL, and cultured at 37° C. for 12 hours. Next, the switch strains having Circuit-B, Circuit-C, or Circuit-D were mixed at an abundance ratio of 1:100:100 in terms of OD. The mixed cell population was subjected to OFF selection by the same method as above, and then cultured at 37° C. for 2 hours. The cells were harvested by centrifugation, the medium was exchanged for M9 minimal medium, MMS was added at a concentration of 0.2%, 0.3%, or 0.4%, and the whole was left to stand still at 37° C. for 30 minutes (ON selection). After that, the medium was exchanged for LB medium, culture was conducted for 12 hours, and plasmids were extracted from the culture solution. The plasmids were transformed together with pλ-gfp into XL10-GOLD™ ultracompetent cells (Agilent Technologies). After that, the transformed cells were inoculated in solid media supplemented and not supplemented with AHL, and the numbers of cells expressing GFP were compared. […]
molecule,measurement,setting,value
"O=C1NC2=NOCCC2=CN1[C@H]1C[C@H](O)[C@@H](CO)O1 [dP, 6-(β-D-2-Deoxyribo-furanosyl)-3,4-dihydro-8H-pyrimido[4,5-c][1,2]oxazin-7-one]",viable cell count,[1],significantly decreased in a dP concentration-dependent manner
same,survival rate,[2],no reduction in survival rate
same,viable cell count after dP shock,[3],almost zero
same,fraction of E. coli cell population killed,E. coli cell population,80%
"O=c1[nH]c(=O)n([C@H]2C[C@H](O)[C@@H](CO)O2)cc1F [5FdU, 5-fluoro-2′-deoxyuridine]",viable cell count,[4],decreased with increasing concentrations of 5FdU
same,viable cell count,"[5]; 5FdU 0 to 25 μg/mL, 12 hours, hsvTK+",decreased at a slow rate
same,survival rate of hsvTK+ as compared to hsvTK−,[5]; 5FdU 25 μg/mL,4.8×10^7 fold
pTrc-aag (WT): ON-selector plasmid containing a wild-type AAG gene,MMS resistance,[6]; 3-methyladenine repair enzyme-deficient strain,acquisition of MMS resistance has been confirmed
"CS(=O)(=O)O [MMS, methanesulfonic acid]",survival rates of cells expressing AAG,"[6]; MMS 20 mM, 60 minutes",significantly decreased
same,enrichment of cells expressing AAG,[6]; MMS treatment 15 to 60 minutes,"~1,000 fold"
same,survival of all the strains,[6]; MMS ~40 mM,mostly died off
same,survival rate of OFF strain (AAG not expressed),"[7]; MMS 0.2-0.4%, 15 to 60 minutes",significantly decreased
same,survival rate of ON strain (AAG expressed),"[7]; MMS 0.2-0.4%, 15 to 60 minutes",only slightly reduced
same,difference in survival rate between the OFF strain and the ON strain,"[7]; MMS 0.4%, 30 minutes",≥ 10^4 fold
same,cell survival in ON selection,[8],all the cells were killed
